# Key:
# [1] = tested on: mouse hepatocellular carcinoma lines; test: Cancer cell proliferation, MTT assay on mouse hepatocellular carcinoma lines; format: cell-based; conditions: treated 1-3 days, dosage range 1 mM to 0.1 nM; vs untreated (DMSO)
# Procedure: (§1) FIG. 1-26 illustrate various exemplary GPAT inhibitors that suppress cancer cell proliferation. With reference to FIG. 1-26: BCL stands for Burkitt lymphoma line, all experiments on BCL were done using trypan blue and cell counts. Cells are treated 1-3 days with dosage range 1 mM to 0.1 nM. RCC stands for renal cell carcinoma, all experiments on RCC were in vivo experiments. Tumors are treated with dosage range 0.1 mg/kg to 100 mg/kg for X days, wherein X ranges from 7 to 30 days. All experiments are done in MTT assay on mouse hepatocellular carcinoma lines that are treated 1-3 days with the dosage range from 1 mM to 0.1 nM. The bar in each of FIGS. 1-26 entitled “Untreated” refers to a sample without an exemplary GPAT inhibitor compound, diluted in DMSO solvent.
# [2] = tested on: Burkitt lymphoma line; test: Burkitt lymphoma line proliferation, trypan blue and cell counts; format: cell-based; conditions: treated 1-3 days, dosage range 1 mM to 0.1 nM
# Procedure: as §1
# [3] = tested on: renal cell carcinoma; test: Renal cell carcinoma (RCC) in vivo tumor experiments; design: species or system mice; conditions: dosage range 0.1 mg/kg to 100 mg/kg for 7 to 30 days
# Procedure: as §1
# MYC RCC mice were generated by crossing FVB/N-Tg(tetO-MYC)28aBop/J mice for MYC with Tg(Ggt1-tTA) #Agoc or (GGT-tTA) for kidney specificity. MYC HCC mice were generated by crossing FVB/N-Tg(tetO-MYC)28aBop/J mice for MYC with Tg(Cebpb-tTA)5Bjd or (LAP-tTA) for liver specificity. All parental lines had undergone at least 10 generations of backcrossing. MYC RCC and MYC HCC mice were bred on doxycycline until 4 weeks of age, when doxycycline was replaced with water for at least 2 weeks for tumorigenesis depending on the experiment described in the patent. […]
# [4] = molecular target: glycerol 3-phosphate acyltransferase (GPAT); conditions: read-out: IC50, inhibitor of glycerol 3-phosphate acyltransferase (GPAT); cited from earlier work
# [5] = tested on: diet-induced obese mice; conditions: cited from earlier work
# [6] = tested on: MYC-induced tumors; test: FSG67 in MYC-induced tumors, xenograft and primary mouse models; format: in vivo
# Description: We present a comprehensive overview of how the MYC oncogene controls lipogenesis to promote tumorigenesis. We find that MYC globally regulates the expression of key genes and their resulting proteins and metabolites in lipogenesis for human and murine cell lines as well as for transgenic mouse models. […] Desorption electrospray ionization mass spectrometric imaging (DESI-MSI) from tissue samples of several conditional transgenic mouse models identified in vivo metabolic changes in simple fatty acids and in complex phospholipids induced by MYC. […] Strong correlation between these in situ changes and elevation of gene expressions of cytidinediphosphate diacylglycerol pathway genes as well as fatty acid elongase genes were found. By administering FSG67, which inhibits GPAT, MYC-induced tumorigenesis was blocked, metabolic changes were suppressed, and tumors regressed in xenograft and primary mouse models.
SMILES,cancer cell proliferation [1],also measured
CCCCCCCCCS(=O)(=O)Nc1ccccc1C(=O)O [BTX 100],suppresses cancer cell proliferation,–
CC(C)CS(=O)(=O)Nc1ccccc1C(=O)O [BTX 106],–,Burkitt lymphoma cell proliferation [2]: suppresses Burkitt lymphoma cell proliferation
CCOCCS(=O)(=O)Nc1ccccc1C(=O)O [BTX 108],suppresses cancer cell proliferation,–
CC(C)S(=O)(=O)Nc1ccccc1C(=O)O [BTX 205],–,renal cell carcinoma cell proliferation [3]: suppresses renal cell carcinoma cell proliferation
CS(=O)(=O)Nc1ccccc1-c1nnn[nH]1 [BTX 281],suppresses cancer cell proliferation,–
CS(=O)(=O)Nc1ccccc1C(=O)O [BTX 601],suppresses cancer cell proliferation,–
CS(=O)(=O)Nc1ccccc1C#N [BTX 671],suppresses cancer cell proliferation,–
CS(=O)(=O)Nc1ccccc1CO [BTX 931],–,Burkitt lymphoma cell proliferation [2]: suppresses Burkitt lymphoma cell proliferation
CCCCS(=O)(=O)Nc1ccccc1-c1nnn[nH]1 [BTX 982],–,Burkitt lymphoma cell proliferation [2]: suppresses Burkitt lymphoma cell proliferation
O=C(O)c1ccccc1NS(=O)(=O)Cc1ccccc1 [BTX 1010],suppresses cancer cell proliferation,–
CCCCCCCCCS(=O)(=O)Nc1ccccc1F [BTX 1101],suppresses cancer cell proliferation,–
CCCCCCCCCS(=O)(=O)Nc1ccccc1Cl [BTX 2111],suppresses cancer cell proliferation,–
CCCCCCCCCS(=O)(=O)Nc1ccccc1Br [BTX 2121],suppresses cancer cell proliferation,–
CCCCCCCCCS(=O)(=O)N1C(=O)OCc2ccccc21 [BTX 2191],suppresses cancer cell proliferation,–
CCCCCCCCCS(=O)(=O)Nc1ccccc1S(C)(=O)=O [BTX 4171],suppresses cancer cell proliferation,–
CCCCCCCCCS(=O)(=O)Nc1ccccc1S(N)(=O)=O [BTX 8151],–,Burkitt lymphoma cell proliferation [2]: suppresses Burkitt lymphoma cell proliferation
CCCCCCCCCS(=O)(=O)Nc1ccccc1C(=O)NS(=O)(=O)C(F)(F)F [BTX 9141],–,Burkitt lymphoma cell proliferation [2]: suppresses Burkitt lymphoma cell proliferation
CCCCCCCCCNS(=O)(=O)c1ccccc1C(=O)O [BTX 9161],suppresses cancer cell proliferation,–
CCCCCCCCCN1C(=N)c2ccccc2S1(=O)=O [BTX 19102],suppresses cancer cell proliferation,–
CCCCCCCCCS(=O)(=O)Nc1ccccc1CO [BTX 83009],suppresses cancer cell proliferation,–
NC1=NS(=O)(=O)c2ccccc21 [BTX 291002],suppresses cancer cell proliferation,–
N#Cc1ccccc1S(N)(=O)=O [BTX 491001],suppresses cancer cell proliferation,–
"CCCCCCCCCS(=O)(=O)Nc1ccccc1C(=O)O [FSG67, 2-(Nonylsulfonamido)benzoic acid]",–,IC50 [4]: 24 µM; body weight and adiposity [5]: decrease body weight and adiposity; energy utilization as fatty acid oxidation [5]: enhance energy utilization as fatty acid oxidation; food intake [5]: reduce food intake; hepatic steatosis [5]: reverse hepatic steatosis; insulin sensitivity [5]: enhance insulin sensitivity; MYC-induced tumorigenesis [6]: blocked; metabolic changes [6]: suppressed; tumors (regression) [6]: regressed
